Structures are written as SMILES.

Assay [1] deals with HCV replicon 2a WT. Kind of assay: Cell-based HCV replicon assay, 2a WT. Particulars: Hepatitis C virus, 72 h; replicon cells, harvested day 3, replicon RNA by real time PCR (Taqman). The protocol: (§1) To measure cell-based anti-HCV activity of selected compounds of the present invention, replicon cells were seeded at 5000 cells/well in 96-well collagen I-coated Nunc plates in the presence of the test compound. Various concentrations of test compound, typically in 10 serial 2-fold dilutions, were added to the assay mixture, with the starting concentration ranging from 250 μM to 1 μM. The final concentration of DMSO was 0.5%, fetal bovine serum was 5%, in the assay media. Cells were harvested on day 3 by the addition of 1× cell lysis buffer (Ambion cat #8721). The replicon RNA level was measured using real time PCR (Taqman assay). The amplicon was located in 5B. The PCR primers were: 5B.2F, ATGGACAGGCGCCCTGA (SEQ. ID. NO. 1); 5B.2R, […] (SEQ. ID. NO. 2); the probe sequence was FAM-labeled CACGCCATGCGCTGCGG (SEQ. ID. NO. 3). GAPDH RNA was used as endogenous control and was amplified in the same reaction as NS5B (multiplex PCR) using primers and VIC-labeled probe recommended by the manufacturer (PE Applied Biosystem). The real-time RT-PCR reactions were run on ABI PRISM 7900HT Sequence Detection System using the following program: 48° C. for 30 minutes, 95° C. for 10 minutes, 40 cycles of 95° C. for 15 sec, 60° C. for 1 minutes. The ΔCT values (CT5B-CTGAPDH) were plotted against the concentration of test compound and fitted to the sigmoid dose-response model using XLfit4 (MDL). […] Alternatively, to quantitate the absolute amount of replicon RNA, a standard curve was established by including serially diluted T7 transcripts of replicon RNA in the Taqman assay. All Taqman reagents were from PE Applied Biosystems. Such an assay procedure was described in detail in e.g. Malcolm et al., Antimicrobial Agents and Chemotherapy 50: 1013-1020 (2006).
(§2) HCV replicon assay data was calculated for selected compounds of the present invention using this method and is provided in the table below.
For orientation: In antiviral work, replicon cells carry a viral genome segment that copies itself.

Assay [2] deals with HCV replicon 1a WT. The experiment in a line: Cell-based HCV replicon assay, 1a WT. Conditions: Hepatitis C virus, 72 h; replicon cells, harvested day 3, replicon RNA by real time PCR (Taqman). As to the method:
as §1, §2

In assay [3] the test system is HCV replicon 1b WT. The experiment in a line: Cell-based HCV replicon assay, 1b WT. Particulars: Hepatitis C virus, 72 h; replicon cells, harvested day 3, replicon RNA by real time PCR (Taqman). The protocol: as §1, §2
Assay [4] relates to HCV replicon 1a Y93H. Kind of assay: Cell-based HCV replicon assay, 1a Y93H. Particulars: Hepatitis C virus, 72 h, read-out: Replicon EC50 1a Y93H. The protocol: as §1, §2
Assay [5] relates to HCV replicon 3a WT. Kind of assay: Cell-based HCV replicon assay, 3a WT. Particulars: Hepatitis C virus, 72 h; replicon cells, harvested day 3, replicon RNA by real time PCR (Taqman). The protocol: as §1, §2
Assay [6] has as its system HCV replicon 4a WT. The experiment in a line: Cell-based HCV replicon assay, 4a WT. Particulars: Hepatitis C virus, 72 h; replicon cells, harvested day 3, replicon RNA by real time PCR (Taqman). The protocol:
as §1, §2

In assay [7] the test system is HCV replicon 2b WT. The experiment in a line: Cell-based HCV replicon assay, 2b WT. Particulars: Hepatitis C virus, 72 h; replicon cells, harvested day 3, replicon RNA by real time PCR (Taqman). As to the method:
as §1, §2

As usually defined, the EC50 is the concentration giving half of the maximal effect. Take `COC(=O)N[C@H](C(=O)N1CCC[C@H]1c1ncc(-c2ccc3c(c2)-n2ccc4c(-c5cnc([C@@H]6CCCN6C(=O)[C@@H](NC(=O)OC)C(C)C)[nH]5)ccc(c42)O3)[nH]1)C(C)C` [Compound 5, Methyl [(2S)-1-{(2S)-2-[5-(3-{2-[(2S)-1-{(2S)-2-[(methoxycarbonyl)amino]-3-methyl-butanoyl}pyrrolidin-2-yl]-1H-imidazol-5-yl}pyrrolo[3,2,1-kl]phenoxazin-9-yl)-1H-imidazol-2-yl]pyrrolidin-1-yl}-3-methyl-1-oxobutan-2-yl]carbamate]: the EC50 in assay [1] is 20 nM; in assay [2], over 26 nM; in assay [3] it was 19 nM.
As for `COC(=O)N[C@H](C(=O)N1CCC[C@H]1c1ncc(-c2ccc3c(c2)Oc2ccc(-c4cnc([C@@H]5CCCN5C(=O)[C@@H](NC(=O)OC)C5CC5)[nH]4)c4ccn-3c24)[nH]1)C1CC1` [Compound 4, Dimethyl (pyrrolo[3,2,1-kl]phenoxazine-3,8-diylbis{1H-imidazole-5,2-diyl(2S)-pyrrolidine-2,1-diyl[(1S)-1-cyclopropyl-2-oxoethane-2,1-diyl]})biscarbamate], the EC50 in assay [1] was 0.012 nM; in assay [4], 64.4 nM; in assay [2], 0.007 nM; in assay [5], 1.9 nM; in assay [3] it was 0.006 nM; in assay [6], 3.12 nM.
Turning to `COC(=O)N[C@@H](C(=O)N1CCC[C@H]1c1ncc(-c2ccc3c(c2)Oc2ccc(-c4cnc([C@@H]5CCCN5C(=O)[C@H](NC(=O)OC)c5ccccc5)[nH]4)c4ccn-3c24)[nH]1)c1ccccc1` [Compound 3, Dimethyl (pyrrolo[3,2,1-kl]phenoxazine-3,8-diylbis{1H-imidazole-5,2-diyl(2S)pyrrolidine-2,1-diyl[(1R)-2-oxo-1-phenylethane-2,1-diyl]})biscarbamate], the EC50 in assay [1] is 0.006 nM; in assay [4], 348 nM; in assay [2], 0.097 nM; in assay [5], 0.019 nM; in assay [3], 0.007 nM; in assay [6], 0.04 nM.
Consider `COC(=O)N[C@H](C(=O)N1C[C@H](F)C[C@H]1c1ncc(-c2ccc3c(c2)Oc2ccc(-c4cnc([C@@H]5C[C@@H](F)CN5C(=O)[C@@H](NC(=O)OC)C(C)C)[nH]4)c4ccn-3c24)[nH]1)C(C)C` [Compound 9, Methyl [(2S)-1-{(2S,4R)-4-fluoro-2-[5-(3-{2-[(2S,4R)-4-fluoro-1-{(2S)-2-[(methoxycarbonyl)amino]-3-methylbutanoyl}pyrrolidin-2-yl]-1H-imidazol-5-yl}pyrrolo[3,2,1-kl]phenoxazin-8-yl)-1H-imidazol-2-yl]pyrrolidin-1-yl}-3-methyl-1-oxobutan-2-yl]carbamate], for which the EC50 in assay [4] was found to be 27.5 nM; in assay [2], 0.01 nM; in assay [5], 1.5 nM; in assay [3], 0.005 nM; in assay [6], 0.1 nM.
Consider `COC(=O)N[C@H](C(=O)N1CC(F)(F)C[C@H]1c1ncc(-c2ccc3c(c2)Oc2ccc(-c4cnc([C@@H]5CC(F)(F)CN5C(=O)[C@@H](NC(=O)OC)C(C)C)[nH]4)c4ccn-3c24)[nH]1)C(C)C` [Compound 8, Methyl [(2S)-1-{(2S)-2-[5-(3-{2-[(2S)-4,4-difluoro-1-{(2S)-2-[(methoxycarbonyl)amino]-3-methylbutanoyl}pyrrolidin-2-yl]-1H-imidazol-5-yl}pyrrolo[3,2,1-kl]phenoxazin-8-yl)-1H-imidazol-2-yl]-4,4-difluoropyrrolidin-1-yl}-3-methyl-1-oxobutan-2-yl]carbamate], for which the EC50 in assay [4] was 11.5 nM; in assay [2], 0.004 nM; in assay [5] it was 0.31 nM; in assay [3], 0.001 nM; in assay [6], 0.019 nM.
For `COC(=O)N[C@H](C(=O)N1CCC[C@H]1c1ncc(-c2cc3c4c(c2)Oc2ccc(-c5cnc([C@@H]6CCCN6C(=O)[C@@H](NC(=O)OC)C(C)C)[nH]5)cc2C4CO3)[nH]1)C(C)C` (stereo partly drawn) [Compound 15, Methyl [(2S)-1-{(2S)-2-[5-(4-{2-[(2S)-1-{(2S)-2-[(methoxycarbonyl)amino]-3-methylbutanoyl}pyrrolidin-2-yl]-1H-imidazol-5-yl}-1,10b-dihydrofuro[2,3,4-kl]xanthen-9-yl)-1H-imidazol-2-yl]pyrrolidin-1-yl}-3-methyl-1-oxobutan-2-yl]carbamate], the EC50 in assay [4] amounted to 83 nM; in assay [2], 0.06 nM; in assay [5] it was 0.52 nM; in assay [3], 0.004 nM; in assay [6] it was 0.39 nM.
`COC(=O)N[C@H](C(=O)N1CCC[C@H]1c1ncc(-c2cc3c4c(c2)Oc2ccc(-c5cnc([C@@H]6CCCN6C(=O)[C@@H](NC(=O)OC)C(C)C)[nH]5)cc2N4CCC3)[nH]1)C(C)C` [Compound 12, Methyl [(2S)-1-{(2S)-2-[5-(5-{2-[(2S)-1-{(2S)-2-[(methoxycarbonyl)amino]-3-methylbutanoyl}pyrrolidin-2-yl]-1H-imidazol-5-yl}-2,3-dihydro-1H-pyrido[3,2,1-kl]phenoxazin-10-yl)-1H-imidazol-2-yl]pyrrolidin-1-yl}-3-methyl-1-oxobutan-2-yl]carbamate]: the EC50 came to 0.002 nM in assay [1]; 115 nM in assay [4]; 0.056 nM in assay [2]; 0.375 nM in assay [5]; 0.003 nM in assay [3]; 0.13 nM in assay [6].
Turning to `COC(=O)N[C@H](C(=O)N1CCC[C@H]1c1ncc(-c2ccc3c(c2)Oc2cc(-c4cnc([C@@H]5CCCN5C(=O)[C@@H](NC(=O)OC)C(C)C)[nH]4)cc4c2N3CCC4)[nH]1)C(C)C` [Compound 11, Methyl [(2S)-1-{(2S)-2-[5-(5-{2-[(2S)-1-{(2S)-2-[(methoxycarbonyl)amino]-3-methylbutanoyl}pyrrolidin-2-yl]-1H-imidazol-5-yl}-2,3-dihydro-1H-pyrido[3,2,1-kl]phenoxazin-9-yl)-1H-imidazol-2-yl]pyrrolidin-1-yl}-3-methy-1-oxobutan-2-yl]carbamate], the concentration giving a half-maximal response (EC50) was found to be 0.345 nM in assay [1]; 504 nM in assay [4]; 0.1 nM in assay [2]; 10 nM in assay [5]; 0.031 nM in assay [3]; 1.02 nM in assay [6].
As for `COC(=O)N[C@H](C(=O)N1CCC[C@H]1c1ncc(-c2ccc3c(c2)Oc2cc(-c4cnc([C@@H]5CCCN5C(=O)[C@@H](NC(=O)OC)C(C)C)[nH]4)cc4c2N3CC4)[nH]1)C(C)C` [Compound 7, Methyl [(2S)-1-{(2S)-2-[5-(4-{2-[(2S)-1-{(2S)-2-[(methoxycarbonyl)amino]-3-methylbutanoyl}pyrrolidin-2-yl]-1H-imidazol-5-yl}-1,2-dihydropyrrolo[3,2,1-kl]phenoxazin-8-yl)-1H-imidazol-2-yl]pyrrolidin-1-yl}-3-methyl-1-oxobutan-2-yl]carbamate], the EC50 in assay [1] was 0.063 nM; in assay [4], 263 nM; in assay [2] it was 0.1 nM; in assay [5], 1.1 nM; in assay [3] it was 0.044 nM; in assay [6], 1.05 nM.
Regarding `COC(=O)N[C@H](C(=O)N1CCC[C@H]1c1ncc(-c2ccc3c(c2)Oc2ccc(-c4cnc([C@@H]5CCCN5C(=O)[C@@H](NC(=O)OC)C(C)(C)C)[nH]4)c4ccn-3c24)[nH]1)C(C)(C)C` [Compound 2, Methyl [(2S)-1-{(2S)-2-[5-(3-(2-[(2S)-1-(2S)-2-[(methoxycarbonyl)amino]-3,3-di-methylbutanoyl}pyrrolidin-2-yl]-1H-imidazol-5-ylpyrrolo[3,2,1-kl]phenoxazin-8-yl)-1H-imidazol-2-yl]pyrrolidin-1-yl)-3,3-dimethyl-1-oxobutan-2-yl]carbamate], the 50% effective concentration (EC50) was 0.018 nM in assay [1]; 454 nM in assay [4]; 0.0736 nM in assay [2]; 1.26 nM in assay [5]; 0.00443 nM in assay [3]; 4.91 nM in assay [6].
For the compound `COC(=O)N[C@H](C(=O)N1CC(F)(F)C[C@H]1c1ncc(-c2ccc3c(c2)Oc2ccc(-c4cnc([C@@H]5CC(F)(F)CN5C(=O)[C@@H](NC(=O)OC)C(C)C)[nH]4)c4c2N3CC4)[nH]1)C(C)C` [Compound 18], the EC50 is 32 nM in assay [4]; 0.009 nM in assay [2]; 0.936 nM in assay [5]; 0.002 nM in assay [3]; 40 nM in assay [7]; 0.056 nM in assay [6].

Source of the values: patent publication US9504690B2, “Tetracyclic xanthene derivatives and methods of use thereof for the treatment of viral diseases” (Merck Sharp & Dohme Corp., priority 2011, dated 2016).
